Values of other authors in patent US6426338B1, “Therapy for constipation” (priority 1997, dated 2002).

Tests used:
[1] = tested on: patients with constipation; conditions: colchicine alone, in a lower dose

SMILES	stimulation of defecation [1]	long-term toxicity (given alone in the doses of Verne et al., long-term)	side-effect (long-term use as antibiotic)
COc1cc2c(c(OC)c1OC)-c1ccc(OC)c(=O)cc1[C@@H](NC(C)=O)CC2 [colchicine]	insufficient in most patients to stimulate defecation	can cause muscle and nerve damage (myopathy and neuropathy)	–
CN[C@H](CC(C)C)C(=O)N[C@H]1C(=O)N[C@@H](CC(N)=O)C(=O)N[C@H]2C(=O)N[C@H]3C(=O)N[C@H](C(=O)N[C@H](C(=O)O)c4cc(O)cc(O)c4-c4cc3ccc4O)[C@H](O)c3ccc(c(Cl)c3)Oc3cc2cc(c3O[C@@H]2O[C@H](CO)[C@@H](O)[C@H](O)[C@H]2O[C@H]2C[C@](C)(N)[C@H](O)[C@H](C)O2)Oc2ccc(cc2Cl)[C@H]1O [vancomycin]	–	–	neurotoxic
